Consider three molecules from ChEMBL document CHEMBL3822432, “Antibacterial and anticancer activity of a series of novel peptides incorporating cyclic tetra-substituted C(α) amino acids” (Bioorg Med Chem, 2016).

For one test, the system named is Enterococcus faecium. Put plainly: Potency index, ratio of Ac-GF-Tic-Oic-GK-Tic-Oic-GF-Tic-Oic-GK-Tic-KKKK-CONH2 MIC to compound MIC for Enterococcus faecium. It is filed as functional.
The subject of test [1] is Klebsiella aerogenes. Nature of the test: Antibacterial activity against carbapenem-resistant Enterobacter aerogenes NCDC819-56 ATCC 13048 by two fold serial dilution method. It counts as functional.
The test system of test [2] is Acinetobacter baumannii. Nature of the test: Antibacterial activity against Acinetobacter baumannii B5W71 ATCC 15149 by two fold serial dilution method. It is filed as functional.
Test [3] is described as follows: (§1) Antibacterial activity against Salmonella enterica LT2 Typhimurium ATCC 15277 by two fold serial dilution method. It is filed as functional.
For test [4], the system named is Pseudomonas aeruginosa. Put plainly: Antibacterial activity against Pseudomonas aeruginosa Boston 41501 ATCC 27853 by two fold serial dilution method. It is filed as functional.
The nature of test [5]: Antibacterial activity against carbapenem-resistant Klebsiella pneumoniae K6 ATCC 700603 by two fold serial dilution method. It counts as functional, Klebsiella pneumoniae 700603.
For another test, the system named is Enterococcus faecalis. Put plainly: Antibacterial activity against Enterococcus faecalis Portland ATCC 29212 by two fold serial dilution method. Particulars: ATCC 29212 Portland. It is filed as functional.
In test [6] the test system is Staphylococcus aureus. Put plainly: Antibacterial activity against methicillin-resistant Staphylococcus aureus USA 300 NRS 384 by two fold serial dilution method. It counts as functional.
Test [7] can be described thus: Antibacterial activity against Clostridium difficile VIP 10463 ATCC 43255 by two fold serial dilution method. It is filed as functional, Clostridium difficile ATCC 43255. As to conditions: Clostridioides difficile.
Test [8] deals with Staphylococcus aureus. Nature of the test: Antibacterial activity against Staphylococcus aureus Seattle 1945 ATCC 25923 by two fold serial dilution method. It is filed as functional.
A further test concerns Streptococcus pneumoniae. Nature of the test: Antibacterial activity against Streptococcus pneumoniae 262 ATCC 49619 by two fold serial dilution method. It counts as functional.
A further test concerns Neisseria gonorrhoeae. Nature of the test: Antibacterial activity against Neisseria gonorrhoeae F-18 ATCC 49226 by two fold serial dilution method. It counts as functional.
The nature of test [9]: Antibacterial activity against Bacillus anthracis Ames NR-3838 by two fold serial dilution method. It counts as functional, Bacillus anthracis str. Ames.
Test [10] can be described thus: Antibacterial activity against Francisella tularensis SCHU S4 NR-643 by two fold serial dilution method. It is filed as functional.
Test [11] can be described thus: Antibacterial activity against Yersinia pestis CO92 NR641 by two fold serial dilution method. It is filed as functional.
Test [12] deals with Burkholderia pseudomallei. Put plainly: Antibacterial activity against Burkholderia pseudomallei AHS 1 NCTC 8016 by two fold serial dilution method. It is filed as functional.
Test [13] concerns Mycobacterium tuberculosis. Nature of the test: Antibacterial activity against Mycobacterium tuberculosis H37Ra ATCC 2517 by two fold serial dilution method. It counts as functional.
Another test concerns CFPAC-1. Put plainly: Antiproliferative activity against human CFPAC-1 cells after 72 hrs by Celltiter-Glo luminescent cell viability assay. It counts as functional, cell-based. Particulars: CFPAC-1, 72 h. In general terms: ATP-based viability assays read luminescence as a measure of living cells.
Another test concerns MCF7. Put plainly: Antiproliferative activity against human MCF7 cells after 72 hrs by Celltiter-Glo luminescent cell viability assay. It is filed as functional, cell-based. Particulars: MCF7, 72 h.
Test [14] in a line: Antiproliferative activity against human IGROV1 cells after 72 hrs by Celltiter-Glo luminescent cell viability assay. It is filed as functional, cell-based. Particulars: IGROV-1, 72 h.
Test [15] in a line: Antiproliferative activity against human COLO205 cells after 72 hrs by Celltiter-Glo luminescent cell viability assay. As to conditions: COLO 205, 72 h. It is filed as functional, cell-based.
Test [16] can be described thus: Antiproliferative activity against human DLD1 cells after 72 hrs by Celltiter-Glo luminescent cell viability assay. It counts as functional, cell-based. As to conditions: DLD-1, 72 h.
A short description of test [17]: Antiproliferative activity against human UACC62 cells after 72 hrs by Celltiter-Glo luminescent cell viability assay. It counts as functional, cell-based. Particulars: UACC-62, 72 h.
The nature of test [18]: Antiproliferative activity against human MIAPaCa2 cells after 72 hrs by Celltiter-Glo luminescent cell viability assay. As to conditions: MIA PaCa-2, 72 h. It is filed as functional, cell-based.
A further test relates to A498. Put plainly: Antiproliferative activity against human A498 cells after 72 hrs by Celltiter-Glo luminescent cell viability assay. It counts as functional, cell-based. Particulars: A498, 72 h.
Test [19] in a line: Antiproliferative activity against human PC3 cells after 72 hrs by Celltiter-Glo luminescent cell viability assay. It is filed as functional, cell-based. As to conditions: PC-3, 72 h.
In a further test the test system is A549. Nature of the test: Antiproliferative activity against human A549 cells after 72 hrs by Celltiter-Glo luminescent cell viability assay. Particulars: A549, 72 h. It is filed as functional, cell-based.
Another test deals with NCI-H69. Put plainly: Antiproliferative activity against human NCI-H69 cells after 72 hrs by Celltiter-Glo luminescent cell viability assay. It is filed as functional, cell-based. Particulars: NCI-H69, 72 h.
The subject of a further test is RL. Put plainly: Antiproliferative activity against human RL cells after 72 hrs by Celltiter-Glo luminescent cell viability assay. It counts as functional, cell-based.
Test [20] deals with Klebsiella aerogenes. Nature of the test: Potency index, ratio of Ac-GF-Tic-Oic-GK-Tic-Oic-GF-Tic-Oic-GK-Tic-KKKK-CONH2 MIC to compound MIC for carbapenem-resistant Enterobacter aerogenes NCDC819-56 ATCC 13048. It is filed as functional. Particulars: pooled result: one value given for 3 cell lines, strains, targets or settings.
For test [21], the system named is Acinetobacter baumannii. Put plainly: Potency index, ratio of Ac-GF-Tic-Oic-GK-Tic-Oic-GF-Tic-Oic-GK-Tic-KKKK-CONH2 MIC to compound MIC for Acinetobacter baumannii B5W71 ATCC 15149. It is filed as functional.
Test [22] deals with Pseudomonas aeruginosa. Nature of the test: Potency index, ratio of Ac-GF-Tic-Oic-GK-Tic-Oic-GF-Tic-Oic-GK-Tic-KKKK-CONH2 MIC to compound MIC for Pseudomonas aeruginosa Boston 41501 ATCC 27853. It counts as functional.
Test [23] deals with Salmonella enterica subsp. enterica serovar Typhimurium str. LT2. The description is as §1. It counts as functional.

Values after ≈ are worked out from the molar mass of the structure shown. Bounds are passed on as bounds.

Take `CC(=O)NCC(=O)N[C@@H](Cc1ccccc1)C(=O)NC1(C(=O)NCC(=O)N2Cc3ccccc3CC2C(=O)N[C@H](CCCCN)C(=O)NC2(C(=O)NCC(=O)N3Cc4ccccc4CC3C(=O)N[C@H](Cc3ccccc3)C(=O)NC3(C(=O)NCC(=O)N4Cc5ccccc5CC4C(=O)NCC(=O)N[C@H](CCCCN)C(=O)N4Cc5ccccc5CC4C(=O)N[C@H](CCCCN)C(=O)N[C@H](CCCCN)C(=O)N[C@H](CCCCN)C(=O)N[C@H](CCCCN)C(N)=O)CCCCC3)CCCCC2)CCCCC1` (stereo partly drawn): the Ratio was found to be 4.3 in the test with Enterococcus faecium, 1.075 in the test on Klebsiella aerogenes [20], 17.2 with Acinetobacter baumannii [21] and 0.2582 with Pseudomonas aeruginosa [22]. Besides, the MIC (commonly the lowest concentration that inhibits growth of the organism) was greater than 43 µM in the test with Klebsiella aerogenes [1]; greater than 45 µM in the test on Acinetobacter baumannii [2]; 5.17 µM (≈ 12.5 µg/mL) in [3]; 10.3 µM (≈ 25 µg/mL) against Pseudomonas aeruginosa [4]; greater than 43 µM in test [5]; greater than 43 µM in the test with Enterococcus faecalis. For the same molecule, the MIC in the test on Staphylococcus aureus [6] is greater than 43 µM; in test [7], 2.58 µM (≈ 6.24 µg/mL); against Staphylococcus aureus [8], greater than 43 µM; in the test with Streptococcus pneumoniae, greater than 43 µM; in the test with Neisseria gonorrhoeae, 41.3 µM (≈ 100 µg/mL); in test [9] it was 10.3 µM (≈ 25 µg/mL). Moreover, the MIC in test [10] is 20.7 µM (≈ 50 µg/mL); in [11], greater than 43 µM; in [12], greater than 43 µM; in test [13] it was 10.3 µM (≈ 25 µg/mL). Moreover, the IC50 (in the test on CFPAC-1; in the test on MCF7; in test [14]; in test [15]; in test [16]; in [17]) was greater than 7.5 µM in each case. The IC50 (as a rule, the concentration needed to halve the response being measured) in test [18] was greater than 7.5 µM; in the test on A498 it was greater than 7.5 µM; in test [19], greater than 7.5 µM; in the test with A549, greater than 7.5 µM; with NCI-H69, greater than 7.5 µM; in the test on RL it was 6.8 µM.
Regarding `CC(=O)NCC(=O)N[C@H](Cc1ccccc1)C(=O)NC1(C(=O)NCC(=O)N2C(C(=O)N[C@@H](CCCCN)C(=O)NC3(C(=O)NCC(=O)N4C(C(=O)N[C@@H](Cc5ccccc5)C(=O)NC5(C(=O)NCC(=O)N6C(C(=O)NCC(=O)N[C@@H](CCCCN)C(=O)N7C(C(=O)N[C@H](CCCCN)C(=O)N[C@H](CCCCN)C(=O)N[C@H](CCCCN)C(=O)N[C@H](CCCCN)C(N)=O)CC8CCCCC87)CC7CCCCC76)CCCCC5)CC5CCCCC54)CCCCC3)CC3CCCCC32)CCCCC1` (stereo in doubt), the Ratio was 4.2 in the test on Enterococcus faecium, 1.05 in the test on Klebsiella aerogenes [20], 8.372 in the test on Acinetobacter baumannii [21] and 0.5232 with Pseudomonas aeruginosa [22]. Moreover, the MIC against Klebsiella aerogenes [1] is greater than 42 µM; with Acinetobacter baumannii [2], 20.9 µM (≈ 50 µg/mL); in test [3], 41.9 µM (≈ 100 µg/mL); against Pseudomonas aeruginosa [4], 20.9 µM (≈ 50 µg/mL); in [5], greater than 42 µM; against Enterococcus faecalis, greater than 42 µM. Also, the minimal inhibitory concentration (MIC) in the test with Staphylococcus aureus [6] is greater than 42 µM; in test [7], 2.62 µM (≈ 6.26 µg/mL); in the test on Staphylococcus aureus [8], greater than 42 µM; in the test with Streptococcus pneumoniae, greater than 42 µM; in the test on Neisseria gonorrhoeae, 20.9 µM (≈ 50 µg/mL); in test [9] it was 20.9 µM (≈ 50 µg/mL). Further, the MIC was 20.9 µM (≈ 50 µg/mL) in test [10], greater than 42 µM in test [11], greater than 42 µM in test [12] and 20.9 µM (≈ 50 µg/mL) in test [13]. The IC50 (with CFPAC-1; with MCF7; in [14]; in test [15]; in test [16]; in test [17]) was greater than 7.5 µM throughout. Further, the IC50 in test [18] was greater than 7.5 µM; in the test on A498 it was greater than 7.5 µM; in test [19] it was greater than 7.5 µM; in the test on A549, greater than 7.5 µM; in the test on NCI-H69, greater than 7.5 µM; in the test on RL it was 6.7 µM.
With GENTAMICIN, the MIC against Klebsiella aerogenes [1] stood at 1.04 µM; in the test on Acinetobacter baumannii [2], 2.09 µM; in test [23], 2.09 µM; with Pseudomonas aeruginosa [4], 8.3 µM.
